# US20230405002A1, “COMBINATIONS OF DIACYLGLYCEROL ACYLTRANSFERASE 2 INHIBITORS AND ACETYL-COA CARBOXYLASE INHIBITOR” (Pfizer Inc., priority 2020, published 2023)
# pIC50: −log10 of the molar value.
# Tests used:
# [1] = test system: Western diet fed Sprague-Dawley rats; assay: In vivo effects of DGAT2 inhibitors on plasma and hepatic triglyceride levels (rat western diet model); settings: oral 3, 10, 30, 100 mg/kg BID 7 days; dose dependent; vs western diet vehicle
# Excerpt: The rat western diet model was utilized to assess the effects of DGAT2 inhibitor treatment on plasma triglyceride production and hepatic triglyceride content in vivo. Male Sprague-Dawley rats were housed under standard laboratory conditions on a 12-hour light, 12-hour dark cycle (lights on at 06:00). Two weeks prior to study start animals were placed on a high-fat, high sucrose, high-cholesterol diet (D12079b, provided by Research Diets, New Brunswick, NJ). This diet provides ˜43% of kilocalories from carbohydrate and ˜41% of kilocalories from fat. Example 4 was administered orally as a solution (10 mL/kg dosing volume) in 0.5% methylcellulose in deionized water, pH 7.0-7.5 (methylcellulose was obtained from Sigma-Aldrich, St. Louis, MO). […] Plasma TG levels were determined using a Roche Hitachi Chemistry analyzer according to the manufacturer's instructions (Roche Diagnostics Corporation, Indianapolis, IN) and data was analyzed using GraphPad Prism (GraphPad Software, Inc., La Jolla, CA). […] The triglyceride assay was performed through absorbance and reported as milligrams per deciliter. […]
# FIG. 29 plots the multiple dose effects of Example 4 on Plasma Triglyceride in Western Diet Fed Sprague-Dawley Rats where plasma triglyceride levels were determined from blood drawn from the lateral tail vein 2-hours following the final dose of Example 4. […]
# [2] = target: human DGAT2 (hDGAT2) (Homo sapiens (Human), UniProt Q96PD7); assay: In vitro DGAT2 assay, determination of IC50 values; assay type: biochemical; settings: geometric mean; hDGAT2 membrane fraction
# [3] = target: DGAT2 in human hepatocytes (Homo sapiens (Human), UniProt Q96PD7); assay: Determination of IC50 values for DGAT2 inhibitors in human hepatocytes; assay type: cell-based; settings: geometric mean; cryopreserved human hepatocytes, DGAT1 inhibitor 3 μM present
# Protocol: For evaluation of the effects of DGAT2 inhibitors in a cell-based setting, cryopreserved human hepatocytes (Lot DOO, Celsis, Baltimore, MD) were thawed and plated onto type I collagen-coated plates according to the manufacturer's instructions. After 18 hours overnight recovery period, the cells were overlayed with media containing 250 μg/mL Geltrex Basement Membrane Matrix (Thermo Fisher). The following day, media was aspirated and replaced with serum-free Williams Media E (Thermo Fisher) containing 400 μM sodium dodecanoate (Sigma-Aldrich, St. Louis, MO) and 2 mM GlutaMAX (Thermo Fisher). […] DGAT2 inhibitors were then added to the desired final concentration. After a 15 minute preincubation, 0.2 μCi [^14C(U)]-glycerol (Perkin Elmer) was added to each well followed by a 3 hour incubation. At this point the media was removed, and the cells lysed via orbital shaking in isopropyl alcohol: tetrahydrofuran (9:1) for 15 minutes prior to centrifugation at 3000 rpm for 10 minutes. Radiolabeled lipids were resolved using a solvent system by thin layer chromatography with the solvent consisting of hexanes: diethyl ether: glacial acetic acid (75:23:2, v/v/v). After separation, radiolabeled lipids were visualized using the Typhoon 9500 phosphorimaging system (GE). The half maximal inhibitory concentrations (IC50 values) were determined by nonlinear regression analysis of the % inhibition dose response curve using GraphPad Prism (GraphPad Software, Inc., La Jolla, CA).
# Table 12 below provides the IC50 values of selected Examples for inhibition of DGAT2 in human hepatocytes in accordance with the above-described assay. Results are reported as geometric mean IC50 values, with the number of replicates (n) shown.
# [4] = Thermodynamic solubility in various media; assay type: physicochemical
# Protocol: The solubility of active pharmaceutical ingredients is an important characteristic in determining biological performance and ease of formulation during drug development, with high solubility being preferred (Klein, S. 2010, The AAPS Journal, 12, 397-406; Di, L., et al 2012, Drug Disc. Today, 17. 486-495). A test sample of crystalline solid (˜7 mg) was combined in a vial with 1 mL of the relevant buffer solution and the mixture vortexed to combine. If the solid dissolved completely, additional solid was added with vortexing until a saturated solution was obtained. The saturated solution/solid mixture was capped and subjected to temperature cycling as follows: 1 min at 25° C.; 8 h at 40° C.; 5 h at 15° C. and 12 h at 25° C. The mixture was filtered in a centrifugal filtration device (0.22 μm PVDF filter, MilliporeSigma, Milwaukee, WI) at 13,000 rpm and the concentration of the test compound in the filtrate was determined by HPLC/UPLC with reference to a three point standard curve. Phosphate buffered saline (PBS, pH 6.8, 50 mM phosphate buffer, 250 mM NaCl). Simulated gastric fluid (SGN pH 1.2, USP recipe). […]
# Chain of DGAT2 in human hepatocytes (Q96PD7 whole entry): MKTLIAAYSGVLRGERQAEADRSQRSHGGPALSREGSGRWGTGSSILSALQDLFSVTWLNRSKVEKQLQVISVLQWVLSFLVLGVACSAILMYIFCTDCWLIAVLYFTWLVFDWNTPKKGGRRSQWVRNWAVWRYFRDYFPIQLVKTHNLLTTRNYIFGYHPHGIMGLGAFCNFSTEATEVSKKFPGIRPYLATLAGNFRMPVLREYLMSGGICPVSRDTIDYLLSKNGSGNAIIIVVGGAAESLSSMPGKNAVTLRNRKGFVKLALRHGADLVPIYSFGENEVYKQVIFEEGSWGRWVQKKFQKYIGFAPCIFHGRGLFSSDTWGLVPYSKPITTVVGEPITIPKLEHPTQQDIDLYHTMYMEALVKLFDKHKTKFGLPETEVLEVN
# Chain of human DGAT2 (hDGAT2) (Q96PD7 whole entry): as above
structure (smiles),measurement,setting,value
"CCOc1cccnc1Oc1cncc(-c2ncc(C(=O)N[C@@H]3CNC[C@@H](F)C3)cn2)c1 [Example 4, 2-{5-[(3-Ethoxypyridin-2-yl)oxy]pyridin-3-yl}-N-[(3S,5S)-5-fluoropiperidin-3-yl]pyrimidine-5-carboxamide]",reduction in liver triglycerides,[1],up to 48%
same,reduction in plasma triglycerides,[1],≤ 70%
same,pIC50,[2],8.00
same,pIC50,[3],7.96
same,solubility at 25 h,"[4]; FaSSIF (as printed, 25 °C, thermodynamic from solid), FaSSIF pH 6.8 (second line so printed; method also names FeSSIF)",1210 µg/mL
same,solubility at 25 h,"[4]; fasted state simulated intestinal fluid (FaSSIF), 25 °C, thermodynamic from solid, FaSSIF pH 6.8 (first line)",700 µg/mL
